Measurements taken from paper PMC9866191, “Novel 9-Benzylaminoacridine Derivatives as Dual Inhibitors of Phosphodiesterase 5 and Topoisomerase II for the Treatment of Colon Cancer” (Molecules, 2023).

How the values were obtained:
[1] = test system: CCD-966SK; test: MTT cell proliferation assay, CCD-966SK; conditions: CCD966SK skin fibroblast, 72 h MTT
[2] = test system: HCT-116; test: MTT cell proliferation assay, HCT-116; conditions: for % Inhibition at 10 µM: 72 h MTT, means ± SD; for IC50: read-out: IC50 μM, 72 h MTT, means ± SD, three experiments
[3] = test system: PC-3; test: NCI-60 one-dose screen; format: cell-based; conditions: Homo sapiens; PC-3, Prostate Cancer panel; single dose 10^−5 M; read-out: Growth inhibition %
[4] = test system: MCF7; test: NCI-60 one-dose screen; format: cell-based; conditions: Homo sapiens; MCF7, Breast Cancer panel; single dose 10^−5 M; read-out: Growth inhibition %
[5] = test system: HOP-62; test: NCI-60 one-dose screen; format: cell-based; conditions: Homo sapiens; HOP-62, Non-small cell lung panel; single dose 10^−5 M; read-out: Growth inhibition %
[6] = test system: MDA-MB-231/ATCC; test: NCI-60 one-dose screen; format: cell-based; conditions: Homo sapiens, Breast Cancer panel, single dose 10^−5 M, read-out: Growth inhibition %
[7] = test system: MOLT-4; test: NCI-60 one-dose screen; format: cell-based; conditions: Homo sapiens; MOLT-4, Leukemia panel; single dose 10^−5 M; read-out: Growth inhibition %
[8] = test system: UO-31; test: NCI-60 one-dose screen; format: cell-based; conditions: Homo sapiens; UO-31, Renal Cancer panel; single dose 10^−5 M; read-out: Growth inhibition %
[9] = test system: RPMI-8226; test: NCI-60 one-dose screen; format: cell-based; conditions: Homo sapiens; RPMI-8226, Leukemia panel; single dose 10^−5 M; read-out: Growth inhibition %
[10] = test system: NCI-H322M; test: NCI-60 one-dose screen; format: cell-based; conditions: Homo sapiens, Non-small cell lung panel, single dose 10^−5 M, read-out: Growth inhibition %
[11] = test system: DU-145; test: NCI-60 one-dose screen; format: cell-based; conditions: Homo sapiens; DU-145, Prostate Cancer panel; single dose 10^−5 M; read-out: Growth inhibition %
[12] = test system: EKVX; test: NCI-60 one-dose screen; format: cell-based; conditions: Homo sapiens, Non-small cell lung panel, single dose 10^−5 M, read-out: Growth inhibition %
[13] = test system: BT-549; test: NCI-60 one-dose screen; format: cell-based; conditions: Homo sapiens; BT-549, Breast Cancer panel; single dose 10^−5 M; read-out: Growth inhibition %
[14] = test system: A498; test: NCI-60 one-dose screen; format: cell-based; conditions: Homo sapiens; A498, Renal Cancer panel; single dose 10^−5 M; read-out: Growth inhibition %
[15] = test system: OVCAR-8; test: NCI-60 one-dose screen; format: cell-based; conditions: Homo sapiens; OVCAR-8, Ovarian Cancer panel; single dose 10^−5 M; read-out: Growth inhibition %
[16] = test system: UACC-62; test: NCI-60 one-dose screen; format: cell-based; conditions: Homo sapiens; UACC-62, Melanoma panel; single dose 10^−5 M; read-out: Growth inhibition %
[17] = test system: HS 578T; test: NCI-60 one-dose screen; format: cell-based; conditions: Homo sapiens, Breast Cancer panel, single dose 10^−5 M, read-out: Growth inhibition %
[18] = test system: SNB-19; test: NCI-60 one-dose screen; format: cell-based; conditions: Homo sapiens; SNB-19, CNS Cancer panel; single dose 10^−5 M; read-out: Growth inhibition %
[19] = test system: 786-0; test: NCI-60 one-dose screen; format: cell-based; conditions: Homo sapiens; 786-0, Renal Cancer panel; single dose 10^−5 M; read-out: Growth inhibition %
[20] = test system: A549/ATCC; test: NCI-60 one-dose screen; format: cell-based; conditions: Homo sapiens, Non-small cell lung panel, single dose 10^−5 M, read-out: Growth inhibition %
[21] = test system: OVCAR-4; test: NCI-60 one-dose screen; format: cell-based; conditions: Homo sapiens; OVCAR-4, Ovarian Cancer panel; single dose 10^−5 M; read-out: Growth inhibition %
[22] = test system: SF-539; test: NCI-60 one-dose screen; format: cell-based; conditions: Homo sapiens; SF-539, CNS Cancer panel; single dose 10^−5 M; read-out: Growth inhibition %
[23] = test system: NCI-H23; test: NCI-60 one-dose screen; format: cell-based; conditions: Homo sapiens; NCI-H23, Non-small cell lung panel; single dose 10^−5 M; read-out: Growth inhibition %
[24] = test system: MALME-3M; test: NCI-60 one-dose screen; format: cell-based; conditions: Homo sapiens, Melanoma panel, single dose 10^−5 M, read-out: Growth inhibition %
[25] = test system: HCT-116; test: NCI-60 one-dose screen; format: cell-based; conditions: Homo sapiens, read-out: Growth inhibition %
[26] = test system: RXF 393; test: NCI-60 one-dose screen; format: cell-based; conditions: Homo sapiens; RXF 393, Renal Cancer panel; single dose 10^−5 M; read-out: Growth inhibition %
[27] = test system: HL-60(TB); test: NCI-60 one-dose screen; format: cell-based; conditions: Homo sapiens, Leukemia panel, single dose 10^−5 M, read-out: Growth inhibition %
[28] = test system: NCI-H460; test: NCI-60 one-dose screen; format: cell-based; conditions: Homo sapiens; NCI-H460, Non-small cell lung panel; single dose 10^−5 M; read-out: Growth inhibition %
[29] = test system: HT29; test: NCI-60 one-dose screen; format: cell-based; conditions: Homo sapiens, HT-29; HT29, Colon Cancer panel; single dose 10^−5 M; read-out: Growth inhibition %
[30] = test system: NCI-H226; test: NCI-60 one-dose screen; format: cell-based; conditions: Homo sapiens; NCI-H226, Non-small cell lung panel; single dose 10^−5 M; read-out: Growth inhibition %
[31] = test system: OVCAR-5; test: NCI-60 one-dose screen; format: cell-based; conditions: Homo sapiens; OVCAR-5, Ovarian Cancer panel; single dose 10^−5 M; read-out: Growth inhibition %
[32] = test system: TK-10; test: NCI-60 one-dose screen; format: cell-based; conditions: Homo sapiens; TK-10, Renal Cancer panel; single dose 10^−5 M; read-out: Growth inhibition %
[33] = test system: MDA-MB-468; test: NCI-60 one-dose screen; format: cell-based; conditions: Homo sapiens; MDA-MB-468, Breast Cancer panel; single dose 10^−5 M; read-out: Growth inhibition %

| SMILES | % Inhibition at 10 µM [1] | % Inhibition at 10 µM [2] | IC50 [2] | inhibition at 10 µM [3] | inhibition at 10 µM [4] | inhibition at 10 µM [5] | inhibition at 10 µM [6] | inhibition at 10 µM [7] | inhibition at 10 µM [8] | inhibition at 10 µM [9] | inhibition at 10 µM [10] | inhibition at 10 µM [11] | inhibition at 10 µM [12] | inhibition at 10 µM [13] | inhibition at 10 µM [14] | inhibition at 10 µM [15] | inhibition at 10 µM [16] | inhibition at 10 µM [17] | inhibition at 10 µM [18] | inhibition at 10 µM [19] | also measured |
| --- | --- | --- | --- | --- | --- | --- | --- | --- | --- | --- | --- | --- | --- | --- | --- | --- | --- | --- | --- | --- | --- |
| Cc1ccc(CNc2c3ccccc3nc3ccccc23)cc1 [Compound 4, Acridin-9-yl-(4-methylbenzyl)-amine] | 38.07 ± 5.90% | 69.31 ± 2.09% | 3.59 ± 0.27 µM | 75.7% | 91% | 56.4% | 56.8% | 95.7% | 88% | 111% | 60.2% | 66.5% | 62.1% | 28.7% | 92.4% | 78.2% | 56.6% | 61.5% | 70.3% | 74.6% | inhibition at 10 µM [20]: 74%; inhibition at 10 µM [21]: 75.5%; inhibition at 10 µM [22]: 81.9%; inhibition at 10 µM [23]: 70.7%; inhibition at 10 µM [24]: 83.8%; inhibition at 10 µM [25]: 88%; inhibition at 10 µM [26]: 89.7%; inhibition at 10 µM [27]: 74.5%; inhibition at 10 µM [28]: 91.2%; inhibition at 10 µM [29]: 89.7%; inhibition at 10 µM [30]: 58.5%; inhibition at 10 µM [31]: 61.9%; inhibition at 10 µM [32]: 64.2%; inhibition at 10 µM [33]: 92.8% |
| COc1ccccc1CNc1c2ccccc2nc2ccccc12 [Compound 5, Acridin-9-yl-(2-methoxybenzyl)-amine] | 6.65 ± 1.18% | 63.71 ± 0.62% | 6.83 ± 0.31 µM | 56.8% | 83.2% | 55.5% | 42.4% | 79.3% | 66.3% | 91.9% | 51.4% | 49.5% | 34.3% | 23% | 86.7% | 68.1% | 39.5% | 38% | 64.2% | 60.7% | inhibition at 10 µM [20]: 65.8%; inhibition at 10 µM [21]: 57.8%; inhibition at 10 µM [22]: 78.8%; inhibition at 10 µM [23]: 69.1%; inhibition at 10 µM [24]: 54.1%; inhibition at 10 µM [25]: 87.3%; inhibition at 10 µM [26]: 69.4%; inhibition at 10 µM [27]: 55.2%; inhibition at 10 µM [28]: 89.8%; inhibition at 10 µM [29]: 82.3%; inhibition at 10 µM [30]: 60.1%; inhibition at 10 µM [31]: 50.2%; inhibition at 10 µM [32]: 44.5%; inhibition at 10 µM [33]: 71.7% |
| Fc1ccccc1CNc1c2ccccc2nc2ccccc12 [Compound 8, Acridin-9-yl-(2-fluorobenzyl)-amine] | 42.52 ± 2.0% | 66.44 ± 0.80% | 3.05 ± 0.15 µM | 52.9% | 83.8% | 47.5% | 46% | 82.7% | 72.3% | 87.7% | 49.7% | 38.1% | 38.3% | 15.1% | 89.1% | 68.9% | 38.4% | 30.9% | 56.1% | 60% | inhibition at 10 µM [20]: 65.9%; inhibition at 10 µM [21]: 60%; inhibition at 10 µM [22]: 68.9%; inhibition at 10 µM [23]: 55.9%; inhibition at 10 µM [24]: 55.3%; inhibition at 10 µM [25]: 86.1%; inhibition at 10 µM [26]: 51.2%; inhibition at 10 µM [27]: 43.1%; inhibition at 10 µM [28]: 86.5%; inhibition at 10 µM [29]: 76.7%; inhibition at 10 µM [30]: 43.6%; inhibition at 10 µM [31]: 48.8%; inhibition at 10 µM [32]: 41.8%; inhibition at 10 µM [33]: 78.2% |
| Fc1cccc(CNc2c3ccccc3nc3ccccc23)c1 [Compound 9, Acridin-9-yl-(3-fluorobenzyl)-amine] | 42.74 ± 2.09% | 57.06 ± 1.36% | 7.3 ± 0.33 µM | 51% | 92.1% | 52.1% | 69.4% | 85.1% | 76% | 89.9% | 59.8% | 58.3% | 68% | 22.9% | 113% | 64% | 49.7% | 36.1% | 64.1% | 63.5% | inhibition at 10 µM [20]: 70.8%; inhibition at 10 µM [21]: 69.5%; inhibition at 10 µM [22]: 73.1%; inhibition at 10 µM [23]: 66.1%; inhibition at 10 µM [24]: 49.5%; inhibition at 10 µM [25]: 86.6%; inhibition at 10 µM [26]: 67.2%; inhibition at 10 µM [27]: 53%; inhibition at 10 µM [28]: 87.3%; inhibition at 10 µM [29]: 85.7%; inhibition at 10 µM [30]: 49.4%; inhibition at 10 µM [31]: 56.2%; inhibition at 10 µM [32]: 35.9%; inhibition at 10 µM [33]: 99.4% |
| Fc1ccc(CNc2c3ccccc3nc3ccccc23)cc1 [Compound 10, Acridin-9-yl-(4-fluorobenzyl)-amine] | 52.93 ± 1.00% | 67.57 ± 0.29% | 2.75 ± 0.04 µM | 73.1% | 92.9% | 57% | 61.7% | 91.3% | 86.5% | 100% | 61.5% | 65.1% | 64.4% | 19.3% | 102% | 77.7% | 49.8% | 60.5% | 67.6% | 72.4% | IC50 ([1]; read-out: IC50 μM): 9.26 ± 0.21 µM; inhibition at 10 µM [20]: 76.3%; inhibition at 10 µM [21]: 66.8%; inhibition at 10 µM [22]: 86.9%; inhibition at 10 µM [23]: 68.3%; inhibition at 10 µM [24]: 74.3%; inhibition at 10 µM [25]: 87.5%; inhibition at 10 µM [26]: 99.8%; inhibition at 10 µM [27]: 78.8%; inhibition at 10 µM [28]: 91.2%; inhibition at 10 µM [29]: 83.9%; inhibition at 10 µM [30]: 48.2%; inhibition at 10 µM [31]: 61.5%; inhibition at 10 µM [32]: 69.8%; inhibition at 10 µM [33]: 88.5% |
